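Assay format: 96-well plates, 48-hour exposure. The concentration for 50% growth inhibition is given as GI50. TGI is the concentration that stops growth completely.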 The source made the active and inactive calls. Rule as the data show it: active = GI50 below about 0.43 µM; inactive = the rest.
Legend:
Experiment in all cases: inhibition of tumour cell growth, NCI panel, 48 h
[1] = tested on: U251 CNS
[2] = tested on: NCI-H23 lung
[3] = tested on: NCI-H460 lung
[4] = tested on: OVCAR-3 ovarian
[5] = tested on: SNB-75 CNS
[6] = tested on: OVCAR-4 ovarian
[7] = tested on: SK-MEL-28 melanoma
[8] = tested on: ACHN renal

SMILES: Cc1ccc(C#CS(=O)(=O)C(F)(F)F)cc1
- TGI [1]: > 100 µM
- TGI [2]: > 100 µM
- TGI [3]: > 100 µM
- TGI [4]: > 100 µM
- TGI [5]: > 100 µM
- TGI [6]: > 100 µM
- TGI [7]: > 100 µM

SMILES: COc1cc(-c2nc3cc(Cl)c(Cl)cc3[nH]2)ccc1OCC(=O)N=Nc1c(O)[nH]c2ccc(Cl)cc12
- GI50 [1]: 203 nM
- TGI [1]: 0.565 µM
- GI50 [2]: 489 nM
- TGI [2]: 3.09 µM
- GI50 [4]: 446 nM
- TGI [4]: 1.57 µM
- GI50 [5]: 1000 nM
- TGI [5]: 3.93 µM
- GI50 [8]: 1690 nM
- TGI [8]: > 100 µM
- GI50 [6]: 403 nM
- TGI [6]: > 100 µM

SMILES: N#Cc1ccc(C2Oc3ccc(Cl)cc3C=C2[N+](=O)[O-])cc1 (stereo unspecified)
- TGI [1]: 3.31 µM
- TGI [2]: 3.23 µM
- TGI [3]: 5.18 µM
- TGI [4]: 3.04 µM
- TGI [5]: 2.83 µM
- TGI [8]: 3.06 µM
- TGI [6]: 3.45 µM
- TGI [7]: 3.31 µM

SMILES: O=Cc1c(Br)[nH]c2ccccc12
- TGI [1]: > 100 µM
- TGI [2]: > 100 µM
- TGI [3]: > 100 µM
- TGI [4]: > 100 µM
- TGI [5]: > 100 µM
- TGI [6]: > 100 µM
- TGI [7]: > 100 µM

SMILES: Cc1cc2oc3c(ccc(=O)n3C)c(=O)c2c(C)c1Cl
- TGI [1]: > 100 µM
- TGI [2]: > 100 µM
- TGI [3]: > 100 µM
- TGI [4]: > 100 µM
- TGI [5]: > 100 µM
- TGI [8]: > 100 µM
- TGI [6]: > 100 µM
- TGI [7]: 73.1 µM

SMILES: O=NN1C(c2ccccc2)CCCC1c1ccccc1 (stereo unspecified)
- TGI [1]: > 100 µM
- TGI [2]: > 100 µM
- TGI [3]: > 100 µM
- TGI [4]: > 100 µM
- TGI [5]: > 77.6 µM
- TGI [6]: > 100 µM
- TGI [7]: > 100 µM

SMILES: CCCCOc1ccc2c(c1)CC[C@@H]1[C@@H]2CC[C@]2(C)C(=O)N(CCCC)C(=O)C[C@@H]12
- TGI [1]: > 100 µM
- TGI [2]: > 100 µM
- TGI [3]: > 100 µM
- TGI [4]: > 100 µM
- TGI [5]: > 100 µM

SMILES: CCOC(=O)C1=C(c2ccccc2)C12N(Cc1ccccc1)C(=O)C2(c1ccccc1)c1ccccc1 (stereo unspecified)
- TGI [1]: > 100 µM
- TGI [2]: > 100 µM
- TGI [3]: > 100 µM
- TGI [4]: > 100 µM
- TGI [8]: > 100 µM
- TGI [7]: > 100 µM

SMILES: O=C1c2cc3c(cc2CC1Cc1ccc2c(c1)CCC2)CCC3 (stereo unspecified)
- TGI [1]: > 100 µM
- TGI [2]: > 100 µM
- TGI [3]: > 100 µM
- TGI [4]: > 100 µM
- TGI [5]: 75.5 µM
- TGI [8]: > 100 µM
- TGI [6]: > 100 µM
- TGI [7]: > 100 µM

SMILES: O=C(c1ccccc1O)c1cc(-c2ncc3c(=O)c4ccccc4oc3n2)c(-c2ccccc2O)[nH]c1=O
- TGI [1]: 27.7 µM
- TGI [2]: 50.1 µM
- TGI [3]: 60.9 µM
- TGI [4]: 62.4 µM
- TGI [5]: > 100 µM
- TGI [6]: 83.5 µM
- TGI [7]: 65.3 µM

SMILES: O=P(O)(O)CN1CCNCCN(CP(=O)(O)O)CCN(CP(=O)(O)O)CCNCC1
- outcome [1]: inactive
- outcome [2]: inactive
- outcome [5]: inactive
- outcome [8]: inactive
- outcome [6]: inactive
- outcome [7]: inactive

Reference: PubChem BioAssay (NCI)
